The values below come from publication PMC7144554, “2-(Arylamino)-6-(trifluoromethyl)nicotinic Acid Derivatives: New HIV-1 RT Dual Inhibitors Active on Viral Replication” (Molecules, 2020).

Each structure is given as a SMILES string. Where only a bound is given, the exact number is not on record here.

As a reminder, the IC50 is the concentration that inhibits the measured activity by half. Broadly, the melting point is the temperature, or range, at which the solid turns liquid. The EC50 is the concentration that produces a half-maximal response. For orientation: CC50 means the concentration giving 50% cytotoxicity.

Series [1] addresses T1, HIV-1 RT-associated RNase H activity (wt RT) (Human immunodeficiency virus type 1 group M subtype B, UniProt P04585).
T1 construct: RT is a heterodimeric (p66/p51) multifunctional enzyme; made in house; host or cells: Escherichia coli strain M15
The experiment in a line: HIV-1 DNA polymerase-independent RNase H activity, wt RT. To be noted: for IC50: RNase H IC50, wt RT; for RNase H IC50 / percentage in parenthesis in presence of the highest concentration of inhibitor tested (RNase H): wt RT. It is filed as biochemical. The method, then: p6HRT-prot vector was kindly provided by Dr. Stuart Le Grice Laboratory. Heterodimeric RT was expressed essentially as described. Briefly, Escherichia coli strain M15 containing the p6HRT-prot vector were grown up to an OD600 of 0.7 and induced with isopropyl β-D-1-thiogalactopyranoside (IPTG) 1.7 mM for 4 h. Cell pellets were resuspended in Lysis buffer (50 mM sodium phosphate pH 7.8, 0.5 mg/mL lysozyme), incubated on ice for 20 min, added 0.3 M final NaCl, sonicated and centrifuged at 30,000× g for 1 h. The supernatant was loaded into a Ni^2+-sepharose column pre-equilibrated with loading buffer (50 mM sodium phosphate pH 7.8, 0.3 M NaCl, 10% glycerol, 10 mM imidazole) and washed thoroughly with wash buffer (50 mM sodium phosphate pH 6.0, 0.3 M NaCl, 10% glycerol, 80 mM imidazole). RT was gradient-eluted with elute buffer (wash buffer with 0.5 M imidazole). Fractions were collected, protein purity was checked by SDS-PAGE and found to be higher than 90%. RT containing fractions were pooled and diluted 1:1 with dilute buffer (50 mM sodium phosphate pH 7.0, 10% glycerol) then loaded into a Hi-trap Heparine HP GE (Healthcare Lifescience) pre-equilibrated with 10-column volume of loading buffer 2 (50 mM sodium phosphate pH 7.0, 10% glycerol, 150 mM NaCl). Column was then washed with loading buffer 2 and RT was gradient-eluted with elute buffer 2 (50 mM sodium phosphate pH 7.0, 10% glycerol, 150 mM NaCl). Fractions were collected, protein was dialyzed and stored in buffer containing 50 mM Tris HCl pH 7.0, 25 mM NaCl, 1 mM EDTA, 50% glycerol. Catalytic activities and protein concentration were determined. Enzyme-containing fractions were pooled and aliquots were stored at −80 °C.
The RT-associated RNase H activity of wt and mutated HIV RTs was measured as described, in 100 µL reaction volume containing 50 mM Tris HCl pH 7.8, 6 mM MgCl2, 1 mM dithiothreitol (DTT), 80 mM KCl, hybrid RNA/DNA (5’-[…]-3’-Fluorescein, 5’-[…]-3’-Dabcyl), and different amounts of enzymes according to a linear range of dose-response curve—20 ng of wt RT; 50 ng K103N RT; 100 ng V108A RT; 4 ng Y181C RT; 100 ng Q475A RT; 100 ng A502F RT. The reaction mixture was incubated for 1 h at 37 °C, the reaction was stopped by addition of EDTA and products were measured with a Victor 3 (Perkin) at 490/528 nm.

Series [2] has as its system HIV-1 IIIB strain. The experiment in a line: Antiviral assay, HIV-1 replication in TZMbl cells (luciferase). The settings on record: TZMbl cells; for EC50: Human immunodeficiency virus 1, TZM-bl, HIV-1 IIIB, read-out: HIV-1 EC50 TZMbl Cells. It is filed as cell-based.
Experimental: Drug-mediated inhibition of virus-induced cytotoxicity was assayed in TZM-BL cells. […] Serial dilutions of drugs were added immediately after infection. Luciferase activity was measured as reported [67]. Two days after infection, the culture medium was removed from each well and 100 µl of Bright Glo reagent (Promega, Luis Obispo, CA) was added to the cells for measurement of luminescence using a Victor 2 luminometer (Perkin). […] Cell viability in CEM cells was quantified 5 days after infection with the MTT-dye reduction method.
Series [3] can be described thus: Cell viability in CEM cells (MTT). The format is cell-based. The settings on record: human, MTT, 5 days. The method, then:
Drug-mediated inhibition of virus-induced cytotoxicity was assayed in TZM-BL cells. Triplicate wells of 96-well plates containing 1 × 10^4 TZMbl cells were infected with HIV-1 IIIB strain at a multiplicity of infection of 0.1. Serial dilutions of drugs were added immediately after infection. Luciferase activity was measured as reported. Two days after infection, the culture medium was removed from each well and 100 µl of Bright Glo reagent (Promega, Luis Obispo, CA) was added to the cells for measurement of luminescence using a Victor 2 luminometer (Perkin). The 50% effective concentration (EC50) was defined as the concentration that caused a 50% reduction of luciferase activity (relative light units) compared to virus control wells. Cell viability in CEM cells was quantified 5 days after infection with the MTT-dye reduction method.

Series [4] can be described thus: Cytotoxicity in TZMbl cells. The settings on record: human. The format is cell-based.

In the case of `Cc1ccc(Cl)cc1Nc1nc(C(F)(F)F)ccc1C(N)=O` [Compound 6], in series [1], the IC50 was greater than 100 µM, the “RNase H IC50” value is “completely inactive” and the “percentage in parenthesis in presence of the highest concentration of inhibitor tested (RNase H)” value (from here on “percentage … of inhibitor tested (RNase H)”) was 87%.
In the case of `Cc1ccc(Cl)cc1Nc1nc(C(F)(F)F)ccc1C(=O)Oc1ccccc1Cl` [Compound 11], in series [1], the IC50 is greater than 100 µM and the “percentage … of inhibitor tested (RNase H)” value amounted to 92%.
Taken in the same sequence, the figures for `Cc1ccc(Cl)cc1Nc1nc(C(F)(F)F)ccc1C(=O)Oc1cccc(Cl)c1` [Compound 12] were greater than 100 µM and 98%.
`Cc1ccc(Cl)cc1Nc1nc(C(F)(F)F)ccc1C(=O)Oc1ccc(Cl)cc1Cl` [Compound 14]: in series [1], the IC50 was greater than 100 µM, the “RNase H IC50” value is given as “abolished the activity” and the “percentage … of inhibitor tested (RNase H)” value was 98%.
Consider `Cc1ccc(Cl)cc1Nc1nc(C(F)(F)F)ccc1C(=O)Oc1c(Cl)cc(Cl)cc1Cl` [Compound 15], for which the half-maximal inhibitory concentration (IC50) in series [1] is 31.8 ± 3.5 µM.
For `Cc1ccc(Cl)cc1Nc1nc(C(F)(F)F)ccc1C(=O)Oc1ccc(O)cc1` [Compound 18, 4-Hydroxyphenyl 2-((5-chloro-2-methylphenyl)amino)-6-(trifluoromethyl)nicotinate], the melting point lay in the range of 184 to 186 °C. This compound also displayed a 50% inhibitory concentration (IC50) in series [1] of 20 ± 1.3 µM.
For `COc1cccc(OC(=O)c2ccc(C(F)(F)F)nc2Nc2cc(Cl)ccc2C)c1` [Compound 19], in series [1], the 50% inhibitory concentration (IC50) is greater than 100 µM and the “percentage … of inhibitor tested (RNase H)” value is listed as 80%.
`COc1ccc(OC(=O)c2ccc(C(F)(F)F)nc2Nc2cc(Cl)ccc2C)cc1OC` [Compound 20, 3,4-Dimethoxyphenyl-2-((5-chloro-2-methylphenyl)amino)-6-(trifluoromethyl)nicotinate] showed an IC50 in series [1] of 21 ± 11 µM.
The compound `COc1cc(OC(=O)c2ccc(C(F)(F)F)nc2Nc2cc(Cl)ccc2C)cc(OC)c1OC` [Compound 22, 3,4,5-Trimethoxyphenyl 2-((5-chloro-2-methylphenyl)amino)-6-(trifluoromethyl)nicotinate] showed a melting point of 138 to 140 °C. In series [1], this compound gave a 50% inhibitory concentration (IC50) of 17.3 ± 1.3 µM.
`CCOC(=O)CNC(=O)c1ccc(C(F)(F)F)nc1Nc1cc(Cl)ccc1C` [Compound 26, Ethyl 2-(2-((5-chloro-2-methylphenyl)amino)-6-(trifluoromethyl)nicotinamido)acetate]: the melting point was 128 to 130 °C. Further, in series [1], the IC50 is greater than 100 µM and the “percentage … of inhibitor tested (RNase H)” value was >100 (100%).
For the compound `Cc1ccc(Cl)cc1Nc1nc(C(F)(F)F)ccc1C(=O)Nc1cccnc1` [Compound 27], the EC50 in series [2] was greater than 5.8 µM. In addition, in series [3], the CC50 at 5 days worked out at 16.2 µM. Moreover, the CC50 in series [4] was determined as 5.8 ± 0.8 µM. The half-inhibitory concentration (IC50) in series [1] turned out to be 25 ± 4.9 µM.
Take `CSc1ccc(NC(=O)c2ccc(C(F)(F)F)nc2Nc2cc(Cl)ccc2C)cc1` [Compound 28, 2-((5-Chloro-2-methylphenyl)amino)-N-(4-(methylthio)phenyl)-6-(trifluoromethyl)nicotinamide]: in series [1], the midpoint of inhibition, the IC50, lay at 5.9 ± 0.9 µM.
With `Cc1cccc(NC(=O)c2ccc(C(F)(F)F)nc2Nc2cc(Cl)ccc2C)c1` [Compound 29], in series [2], the 50% effective concentration (EC50) is 2.5 ± 0.4 µM and the “SI (selectivity index)” value is on record as 1.6. Moreover, the CC50 at 5 days in series [3] was 6.3 µM. In series [4], this compound had a CC50 of 3.9 ± 0.9 µM. The compound also returned a 50% inhibitory concentration (IC50) in series [1] of 8.9 ± 0.1 µM.
As to `Cc1ccc(Cl)cc1Nc1nc(C(F)(F)F)ccc1C(=O)Nc1cccc(Cl)c1` [Compound 30], the EC50 in series [2] is greater than 3.9 µM. In addition, the half-maximal cytotoxic concentration (CC50) at 5 days in series [3] was found to be 8.4 µM. Also, in series [4], the CC50 was 3.9 ± 0.9 µM. In addition, the 50% inhibitory concentration (IC50) in series [1] came out at 4 ± 2.2 µM.
Consider `Cc1ccc(Cl)cc1Nc1nc(C(F)(F)F)ccc1C(=O)Nc1ccc(Cl)cc1Cl` [Compound 31], for which the concentration for a half-maximal effect (EC50) in series [2] was greater than 4.7 µM. The midpoint of cytotoxicity in series [3], the CC50 at 5 days, lay at 7.8 µM. The compound further had a CC50 in series [4] of 4.7 ± 1.7 µM. In addition, in series [1], the IC50 was determined as 8.8 ± 0.5 µM.
In the case of `COc1ccc(NC(=O)c2ccc(C(F)(F)F)nc2Nc2cc(Cl)ccc2C)cc1Cl` [Compound 32], in series [1], the IC50 was greater than 100 µM and the “percentage … of inhibitor tested (RNase H)” value is reported as >100 (100%).
For `COc1cccc(NC(=O)c2ccc(C(F)(F)F)nc2Nc2cc(Cl)ccc2C)c1` [Compound 33], in series [1], the IC50 is greater than 100 µM, the “RNase H IC50” value is recorded as “abolished the activity” and the “percentage … of inhibitor tested (RNase H)” value amounted to 54%.
Regarding `COc1cc(NC(=O)c2ccc(C(F)(F)F)nc2Nc2cc(Cl)ccc2C)cc(OC)c1` [Compound 34], in series [2], the EC50 was found to be 2 ± 0.3 µM and the “SI (selectivity index)” value came to 2.6. In series [3], this compound had a cytotoxic concentration (CC50) at 5 days of 10.4 µM. In series [4], this compound returned a CC50 of 5.3 ± 0.6 µM. Also, the half-inhibitory concentration (IC50) in series [1] came to 17.5 ± 3.9 µM.
As to `COc1ccc(NC(=O)c2ccc(C(F)(F)F)nc2Nc2cc(Cl)ccc2C)cc1OC` [Compound 35], half-maximal inhibition in series [1] (IC50) was put at 22.4 ± 4 µM.
Turning to `COc1cc(NC(=O)c2ccc(C(F)(F)F)nc2Nc2cc(Cl)ccc2C)cc(OC)c1OC` [Compound 36], in series [2], the EC50 worked out at 1.8 ± 0.6 µM and the “SI (selectivity index)” value stood at 1.2. The half-maximal cytotoxic concentration (CC50) at 5 days in series [3] worked out at 10.2 µM. Further, the CC50 in series [4] turned out to be 2.2 ± 0.4 µM. The IC50 in series [1] is 19.4 ± 1.5 µM.
As for `Cc1ccc(Cl)cc1Nc1nc(C(F)(F)F)ccc1C(=O)Nc1ccc(C(F)(F)F)cc1` [Compound 37], in series [2], the EC50 is greater than 2.2 µM. Besides, the CC50 at 5 days in series [3] was 4.3 µM. In series [4], this compound gave a cytotoxic concentration (CC50) of 2.2 ± 0.2 µM. The compound also came in with a half-maximal inhibitory concentration (IC50) in series [1] of 7.8 ± 1.2 µM.
On to `Cc1ccc(Cl)cc1Nc1nc(C(F)(F)F)ccc1C(=O)NCc1ccccc1Cl` [Compound 38, N-(2-chlorobenzyl)-2-((5-chloro-2-methylphenyl)amino)-6-(trifluoromethyl)nicotinamide], for which the EC50 in series [2] is greater than 5.7 µM. The compound also yielded a cytotoxic concentration (CC50) at 5 days in series [3] of 12.5 µM. Moreover, in series [4], the cytotoxic concentration (CC50) came out at 5.7 ± 0.7 µM. The IC50 in series [1] came out at 19.4 ± 1.1 µM.
Taken in the same sequence, the figures for `Cc1ccc(Cl)cc1Nc1nc(C(F)(F)F)ccc1C(=O)NCc1ccc(F)cc1` [Compound 41, 2-((5-Chloro-2-methylphenyl)amino)-N-(4-fluorobenzyl)-6-(trifluoromethyl)nicotinamide] were greater than 6 µM, 11.6 µM, 6 ± 0.6 µM and 23.3 ± 3.1 µM.
On to `COc1ccc(CNC(=O)c2ccc(C(F)(F)F)nc2Nc2cc(Cl)ccc2C)cc1` [Compound 43, 2-((5-Chloro-2-methylphenyl)amino)-N-(4-methoxybenzyl)-6-(trifluoromethyl)nicotinamide], for which the EC50 in series [2] was greater than 10 µM. Moreover, in series [3], the 50% cytotoxic concentration (CC50) at 5 days was 20 µM. The same compound had a CC50 in series [4] of 13.2 ± 1.3 µM. Besides, the IC50 in series [1] worked out at 30.4 ± 3.9 µM.
Taken in the same sequence, the figures for `Cc1ccc(CNC(=O)c2ccc(C(F)(F)F)nc2Nc2cc(Cl)ccc2C)cc1` [Compound 44, 2-((5-Chloro-2-methylphenyl)amino)-N-(4-methylbenzyl)-6-(trifluoromethyl)nicotinamide] were greater than 1.1 µM, 3.5 µM, 1.1 µM and 21.3 ± 0.5 µM.
Compound `Cc1ccc(Cl)cc1Nc1nc(C(F)(F)F)ccc1C(=O)N1CCN(c2ccccc2)CC1` [Compound 48, (2-((5-Chloro-2-methylphenyl)amino)-6-(trifluoromethyl)pyridin-3-yl)(4-phenylpiperazin-1-yl)methanone] gave a melting point of 118 to 120 °C. For the same compound, in series [1], the IC50 was greater than 100 µM and the “percentage … of inhibitor tested (RNase H)” value is given as >100 (100%).
